Literature values, collected in patent US20140294790A1, “METHOD OF PREVENTING, CONTROLLING AND AMELIORATING URINARY TRACT INFECTIONS AND SUPPORTING DIGESTIVE HEALTH BY USING A SYNERGISTIC CRANBERRY DERIVATIVE, A D-MANNOSE COMPOSITION AND A PROPRIETARY PROBIOTIC BLEND” (U.S. NUTRACEUTICALS, LLC d/b/a Valensa International, priority 2008, published 2014).

Experiments:
[1] = test system: Bacillus subtilis
[2] = test system: Clostridium perfringens
[3] = test system: Escherichia coli
[4] = test system: Salmonella enteritidis
[5] = test system: Salmonella typhimurium
[6] = test system: Staphylococcus aureus

Measured: antibacterial activity

acidophilin
demonstrated activity: [1] | [2] | [3] | [4] | [5] | [6]
